Experiments:
Cytochrome P450 3A4 = Cytochrome P450 3A4 (Homo sapiens, UniProt P08684); experiment: Activity of human recombinant CYP3A4 assessed as metabolite formation at 50 uM in presence of NADPH by LC-MS/MS method; type: ADME; settings: recombinant enzyme
[1] = Drug metabolism in NADPH supplemented rabbit liver microsomes fraction assessed as 3-((1H-imidazol-2-yl)methyl)-6-tert-butyl-2,4-dimethylphenol formation at 50 uM after 1 hr by LC-MS/MS method; type: ADME, Oryctolagus cuniculus
Liver microsome [2] = experiment: Drug metabolism in NADPH supplemented rat liver microsomes fraction assessed as 3-((1H-imidazol-2-yl)methyl)-6-(1-hydroxy-2-methylpropan-2-yl)-2,4-dimethylphenol formation at 50 uM after 1 hr by LC-MS/MS method; type: ADME
Cytochrome P450 2C19 [3] = biological target: T1, Cytochrome P450 2C19 (Homo sapiens, UniProt P33261); experiment: Activity of human recombinant CYP2C19 assessed as 3-((1H-imidazol-2-yl)methyl)-6-tert-butyl-2,4-dimethylphenol formation at 50 uM in presence of NADPH by LC-MS/MS method; type: ADME; settings: recombinant enzyme
T1 sequence (P33261 whole entry): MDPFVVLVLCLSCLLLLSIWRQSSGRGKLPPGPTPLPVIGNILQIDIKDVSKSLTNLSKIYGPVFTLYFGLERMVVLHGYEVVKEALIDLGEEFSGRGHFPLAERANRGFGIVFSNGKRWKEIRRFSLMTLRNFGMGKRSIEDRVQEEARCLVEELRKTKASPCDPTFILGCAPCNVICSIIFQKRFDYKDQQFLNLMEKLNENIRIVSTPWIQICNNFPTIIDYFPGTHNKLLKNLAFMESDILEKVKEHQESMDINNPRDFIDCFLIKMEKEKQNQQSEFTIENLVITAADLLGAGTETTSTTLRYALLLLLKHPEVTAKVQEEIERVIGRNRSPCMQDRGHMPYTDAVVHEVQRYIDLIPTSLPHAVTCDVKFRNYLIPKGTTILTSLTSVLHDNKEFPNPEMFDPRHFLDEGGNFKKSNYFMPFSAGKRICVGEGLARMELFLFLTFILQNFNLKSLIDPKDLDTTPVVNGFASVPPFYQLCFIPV

[4] = Drug metabolism in NADPH supplemented human liver S9 fraction assessed as 3-((1H-imidazol-2-yl)methyl)-6-(1-hydroxy-2-methylpropan-2-yl)-2,4-dimethylphenol formation at 50 uM in presence of glutathione by LC-MS/MS method; type: ADME, subcellular; settings: s9, 50 µM
Cytochrome P450 2C9 = Cytochrome P450 2C9 (Homo sapiens, UniProt P11712); experiment: Activity of human recombinant CYP2C9 assessed as metabolite formation at 50 uM in presence of NADPH by LC-MS/MS method; type: ADME; settings: recombinant enzyme
Sequence of Cytochrome P450 2C9 (P11712 whole entry): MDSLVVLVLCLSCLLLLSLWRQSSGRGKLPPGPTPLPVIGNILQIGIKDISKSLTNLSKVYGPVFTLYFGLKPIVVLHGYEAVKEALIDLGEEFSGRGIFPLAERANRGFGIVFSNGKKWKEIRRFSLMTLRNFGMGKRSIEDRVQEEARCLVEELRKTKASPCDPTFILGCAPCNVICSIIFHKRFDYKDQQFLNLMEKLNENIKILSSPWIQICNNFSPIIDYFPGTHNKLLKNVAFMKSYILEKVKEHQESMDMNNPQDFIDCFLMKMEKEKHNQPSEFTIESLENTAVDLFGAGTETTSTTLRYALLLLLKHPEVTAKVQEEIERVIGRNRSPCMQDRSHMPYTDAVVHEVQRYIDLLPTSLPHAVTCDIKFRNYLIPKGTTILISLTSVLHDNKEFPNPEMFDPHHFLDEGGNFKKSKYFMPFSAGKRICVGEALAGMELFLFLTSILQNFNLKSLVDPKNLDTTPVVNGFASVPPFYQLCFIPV

[5] = Drug level in NADPH supplemented rabbit liver S9 fraction treated with 50 uM oxymetazoline assessed as compound-N-acetyl cysteine conjugate formation in presence of N-acetyl cysteine by LC-MS/MS method; type: ADME, subcellular, Oryctolagus cuniculus
Cytochrome P450 2C19 [6] = biological target: T1, Cytochrome P450 2C19; experiment: Activity of human recombinant CYP2C19 assessed as 3-((4,5-dihydro-1H-imidazol-2-yl)methyl)-6-(1-hydroxy-2-methylpropan-2-yl)-2,4-dimethylphenol formation at 50 uM in presence of NADPH by LC-MS/MS method; type: ADME; settings: recombinant enzyme
Liver microsome [7] = experiment: Drug metabolism in NADPH supplemented rat liver microsomes fraction assessed as 3-((4,5-dihydro-1H-imidazol-2-yl)methyl)-6-(1-hydroxy-2-methylpropan-2-yl)-2,4-dimethylphenol formation at 50 uM after 1 hr by LC-MS/MS method; type: ADME
[8] = Drug metabolism in NADPH supplemented rat liver S9 fraction assessed as 3-((4,5-dihydro-1H-imidazol-2-yl)methyl)-6-(1-hydroxy-2-methylpropan-2-yl)-2,4-dimethylphenol formation at 50 uM in presence of glutathione by LC-MS/MS method; type: ADME, subcellular; settings: s9, 50 µM
[9] = Drug metabolism in NADPH supplemented rabbit liver S9 fraction assessed as 3-((1H-imidazol-2-yl)methyl)-6-(1-hydroxy-2-methylpropan-2-yl)-2,4-dimethylphenol formation at 50 uM in presence of glutathione by LC-MS/MS method; type: ADME, subcellular, Oryctolagus cuniculus; settings: s9, 50 µM
Cytochrome P450 2C18 = biological target: T2, Cytochrome P450 2C18 (Homo sapiens, UniProt P33260); experiment: Activity of human recombinant CYP2C18 assessed as metabolite formation at 50 uM in presence of NADPH by LC-MS/MS method; type: ADME; settings: recombinant enzyme
T2 sequence (P33260 whole entry): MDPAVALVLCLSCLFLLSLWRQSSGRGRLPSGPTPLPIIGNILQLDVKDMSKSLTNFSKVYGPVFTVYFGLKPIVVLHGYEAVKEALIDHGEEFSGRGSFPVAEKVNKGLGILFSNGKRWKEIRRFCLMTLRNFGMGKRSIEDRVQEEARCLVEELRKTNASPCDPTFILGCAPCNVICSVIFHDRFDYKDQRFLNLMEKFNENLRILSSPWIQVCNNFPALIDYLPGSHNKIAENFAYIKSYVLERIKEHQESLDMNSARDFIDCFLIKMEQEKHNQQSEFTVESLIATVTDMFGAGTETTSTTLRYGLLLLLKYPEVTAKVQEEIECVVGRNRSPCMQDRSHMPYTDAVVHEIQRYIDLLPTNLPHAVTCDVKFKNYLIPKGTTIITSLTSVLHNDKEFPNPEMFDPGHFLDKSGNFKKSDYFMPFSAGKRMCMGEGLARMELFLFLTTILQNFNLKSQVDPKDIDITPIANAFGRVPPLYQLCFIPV

Cytochrome P450 2B6 = biological target: T3, Cytochrome P450 2B6 (Homo sapiens, UniProt P20813); experiment: Activity of human recombinant CYP2B6 assessed as metabolite formation at 50 uM in presence of NADPH by LC-MS/MS method; type: ADME; settings: recombinant enzyme
T3 sequence (P20813 whole entry): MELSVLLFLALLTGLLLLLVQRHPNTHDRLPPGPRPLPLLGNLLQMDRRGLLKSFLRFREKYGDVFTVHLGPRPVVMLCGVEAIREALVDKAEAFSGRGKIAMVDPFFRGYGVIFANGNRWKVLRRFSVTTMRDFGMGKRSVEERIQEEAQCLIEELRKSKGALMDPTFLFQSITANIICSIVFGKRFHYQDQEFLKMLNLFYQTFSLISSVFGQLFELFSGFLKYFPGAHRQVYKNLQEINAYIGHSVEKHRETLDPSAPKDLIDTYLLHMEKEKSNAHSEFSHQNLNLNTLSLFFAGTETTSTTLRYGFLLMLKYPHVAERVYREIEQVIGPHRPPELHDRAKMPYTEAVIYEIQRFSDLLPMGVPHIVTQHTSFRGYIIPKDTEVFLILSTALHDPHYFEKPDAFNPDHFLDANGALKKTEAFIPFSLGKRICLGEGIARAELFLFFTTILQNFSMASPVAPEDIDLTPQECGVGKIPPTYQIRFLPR

[10] = Drug metabolism in NADPH supplemented rat liver S9 fraction assessed as 3-((1H-imidazol-2-yl)methyl)-6-(1-hydroxy-2-methylpropan-2-yl)-2,4-dimethylphenol formation at 50 uM in presence of glutathione by LC-MS/MS method; type: ADME, subcellular; settings: s9, 50 µM
[11] = Drug metabolism in NADPH supplemented human liver S9 fraction assessed as 3-((4,5-dihydro-1H-imidazol-2-yl)methyl)-6-(1-hydroxy-2-methylpropan-2-yl)-2,4-dimethylphenol formation at 50 uM in presence of glutathione by LC-MS/MS method; type: ADME, subcellular; settings: s9, 50 µM

Sequence of Cytochrome P450 3A4 (P08684 whole entry): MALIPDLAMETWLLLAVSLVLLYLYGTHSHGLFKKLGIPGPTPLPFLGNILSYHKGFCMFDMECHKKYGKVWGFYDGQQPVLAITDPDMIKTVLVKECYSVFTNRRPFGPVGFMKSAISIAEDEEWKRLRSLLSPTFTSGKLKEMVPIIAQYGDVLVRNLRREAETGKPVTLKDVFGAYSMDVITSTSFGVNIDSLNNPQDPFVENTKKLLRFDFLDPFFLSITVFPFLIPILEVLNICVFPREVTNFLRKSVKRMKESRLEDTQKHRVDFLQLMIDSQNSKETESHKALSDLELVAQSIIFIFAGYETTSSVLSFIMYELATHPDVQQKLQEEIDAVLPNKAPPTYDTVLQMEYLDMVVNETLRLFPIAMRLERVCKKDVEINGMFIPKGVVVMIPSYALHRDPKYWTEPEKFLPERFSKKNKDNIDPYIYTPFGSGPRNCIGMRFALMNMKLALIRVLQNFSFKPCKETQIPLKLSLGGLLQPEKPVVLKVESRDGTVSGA

Drug metabolism (Cytochrome P450 3A4): metabolite_not_detected
Drug metabolism [1]: metabolite_detected
Drug metabolism (Liver microsome [2]): metabolite_detected
Drug metabolism (Cytochrome P450 2C19 [3]): metabolite_detected
Drug metabolism [4]: metabolite_detected
Drug metabolism (Cytochrome P450 2C9): metabolite_not_detected
Drug metabolism [5]: metabolite_detected
Drug metabolism (Cytochrome P450 2C19 [6]): metabolite_detected
Drug metabolism (Liver microsome [7]): metabolite_detected
Drug metabolism [8]: metabolite_detected
Drug metabolism [9]: metabolite_detected
Drug metabolism (Cytochrome P450 2C18): metabolite_not_detected
Drug metabolism (Cytochrome P450 2B6): metabolite_not_detected
Drug metabolism [10]: metabolite_detected
Drug metabolism [11]: metabolite_detected
SMILES: Cc1cc(C(C)(C)C)c(O)c(C)c1CC1=NCCN1 [OXYMETAZOLINE]

Source: ChEMBL document CHEMBL3525902, “In vitro metabolism of oxymetazoline: evidence for bioactivation to a reactive metabolite” (Drug Metab Dispos, 2011)
